Holding throughout (test): ≥ marks a high value that may be exact or a test limit, other limits are often not marked, values filed in µg/mL are converted to µM
The test system of assay [1] is Enterococcus faecalis ATCC 29212.
Assay [2] concerns Staphylococcus aureus ATCC BAA-44.
Assay [3] relates to Escherichia coli ATCC 35218.
The test system of assay [4] is Escherichia coli ML-35p.
Assay [5] has as its system Bacillus megaterium.
Assay [6] concerns Salmonella enterica subsp. enterica serovar Enteritidis.
For assay [7], the system named is Pseudomonas aeruginosa ATCC 27853.
Assay [8] relates to Acinetobacter baumannii ATCC 19606.
Assay [9] has as its system Staphylococcus aureus ATCC 25923.
Assay [10] concerns Staphylococcus aureus ST1065.
The subject of assay [11] is Klebsiella pneumoniae ATCC 13883.
Assay [12] concerns Candida parapsilosis ATCC 22019.
Assay [13] concerns Staphylococcus aureus ATCC 43300.
The subject of assay [14] is Escherichia coli ATCC 25922.
In assay [15] the test system is Saccharomyces cerevisiae.
Assay [16] deals with Candida albicans ATCC 90028.
The test system of assay [17] is Pseudomonas aeruginosa ATCC 9027.
The subject of assay [18] is Candida albicans ATCC 10231.
The test system of assay [19] is Staphylococcus epidermidis ATCC 14490.
Assay [20] concerns Klebsiella pneumoniae ATCC 200603.
The subject of assay [21] is Candida tropicalis PCM 2681.
For assay [22], the system named is Bacillus subtilis ATCC 6633.
Assay [23] has as its system Mycobacterium tuberculosis 411.
Assay [24] deals with Mycobacterium tuberculosis 212.
Assay [25] has as its system Mycobacterium tuberculosis 173.
Assay [26] relates to Mycobacterium tuberculosis H37Rv.
In assay [27] the test system is Mycobacterium tuberculosis CSU87.
Assay [28] deals with Escherichia coli ATCC 2592.
The test system of assay [29] is Staphylococcus aureus ATCC 6538.
Assay [30] relates to Staphylococcus aureus 1550.
In assay [31] the test system is Micrococcus luteus ATCC 9341.
Assay [32] concerns Escherichia coli SBS 363.
In assay [33] the test system is Salmonella sp.
Assay [34] concerns Enterobacter cloacae beta-12.
Assay [35] relates to Alcaligenes faecalis ATCC 8750.
Assay [36] relates to Serratia marcescens ATCC 4112.
The test system of assay [37] is Escherichia coli D31.
The subject of assay [38] is Salmonella enterica subsp. arizonae.
Assay [39] concerns Streptococcus sanguinis ATCC 10556.
Assay [40] relates to Streptococcus mutans UA159.
In assay [41] the test system is Streptococcus sobrinus ATCC 6715.
For assay [42], the system named is Lactococcus lactis AS1.1690.
Assay [43] relates to Enterococcus faecium CGMCC 1.2334.
Assay [44] relates to Bacillus cereus AS1.126.
For assay [45], the system named is Enterococcus faecalis CGMCC 1.595.
Assay [46] concerns Escherichia coli AS1.349.
The subject of assay [47] is Staphylococcus aureus AS1.72.
The subject of assay [48] is Pseudomonas aeruginosa CGMCC 1.860.

≈ marks a conversion by molar mass, not a printed value.

We go through seven compounds from DBAASP.

Turning to `CC[C@H](C)[C@H](NC(=O)CNC(=O)[C@H](C)NC(=O)[C@H](CC(C)C)NC(=O)[C@H](C)NC(=O)[C@H](C)NC(=O)[C@@H]1CCCN1C(=O)[C@H](CC(C)C)NC(=O)[C@@H](N)Cc1ccccc1)C(=O)NCC(=O)NCC(=O)N[C@H](C(=O)N[C@@H](CC(C)C)C(=O)NCC(=O)N[C@@H](CCCCN)C(=O)N[C@@H](CC(C)C)C(=O)N[C@@H](Cc1ccccc1)C(N)=O)[C@@H](C)CC` [FLPAALAGIGGILGKLF], the minimal inhibitory concentration (MIC) (commonly the lowest concentration found to suppress growth) in assay [1] was 25 µM (≈ 41.4 µg/mL); in assay [2] it was 6.25 µM (≈ 10.4 µg/mL); in assay [3], at least 50 µM; in assay [4], 25 µM (≈ 41.4 µg/mL); in assay [5], 1.56 µM (≈ 2.59 µg/mL); in [6], at least 200 µM. Further, the MIC in assay [7] was over 200 µM; in assay [8], 25 µM (≈ 41.4 µg/mL); in [9] it was 6.25 µM (≈ 10.4 µg/mL); in [10], 6.25 µM (≈ 10.4 µg/mL); in assay [11], at least 100 µM; in assay [12] it was at least 200 µM. Also, the MIC in [13] was 6.25 µM (≈ 10.4 µg/mL); in [14] it was 5 µM (≈ 8.29 µg/mL); in [15], 25 µM (≈ 41.4 µg/mL); in [16], at least 100 µM.

Consider `CC[C@H](C)[C@H](N)C(=O)N[C@H]1CSSC[C@@H](C(=O)N[C@H](C(=O)O)[C@@H](C)CC)NC(=O)[C@H](Cc2cnc[nH]2)NC(=O)[C@H](Cc2cnc[nH]2)NC1=O` [ICHHCI], for which the MIC was over 706 µM in assay [17]; over 706 µM in assay [18]; at least 706 µM in assay [19]; at least 706 µM in [20]; over 706 µM in assay [9]; at least 706 µM in assay [21]. Moreover, the figures for the MIC in assay [22] and in assay [14] were at least 706 µM and over 706 µM, respectively.

For the compound `CC[C@H](C)[C@H](N)C(=O)N[C@@H](CC(C)C)C(=O)N[C@@H](CC(C)C)C(=O)N[C@@H](CCCCN)C(=O)N[C@@H](CCCCN)C(=O)N[C@@H](CC(C)C)C(=O)N[C@@H](CC(C)C)C(=O)N[C@@H](CCCCN)C(=O)N[C@@H](CCCCN)C(=O)N[C@H](C(N)=O)[C@@H](C)CC` [ILLKKLLKKI], the MIC in [23] was at least 207 µM; in [24], at least 413 µM; in [25] it was at least 413 µM; in assay [26], at least 413 µM; in assay [27], at least 207 µM.

Take `CC(C)[C@H](NC(=O)[C@H](CCCCN)NC(=O)[C@H](Cc1ccccc1)NC(=O)[C@@H](NC(=O)[C@@H](NC(=O)[C@H](CCCCN)NC(=O)[C@@H](N)CCCCN)C(C)C)C(C)C)C(=O)N[C@@H](CCCCN)C(=O)N[C@@H](Cc1ccccc1)C(=O)N[C@@H](Cc1cnc[nH]1)C(=O)O` [KKVVFKVKFH]: the MIC turned out to be 7.94 µM (≈ 10 µg/mL) in assay [17]; 17.5 µM (≈ 22 µg/mL) in [28]; 9.92 µM (≈ 12.5 µg/mL) in [29]; 19.8 µM (≈ 25 µg/mL) in assay [30]; 6.35 µM (≈ 8 µg/mL) in [31].

Consider `CC(C)[C@H](NC(=O)[C@H](C)NC(=O)[C@@H]1CCCN1C(=O)[C@H](Cc1ccc(O)cc1)NC(=O)[C@@H](N)CCCN=C(N)N)C(=O)NCC(=O)N[C@@H](Cc1ccc(O)cc1)C(=O)N[C@H](C(=O)O)[C@@H](C)O` [RYPAVGYT], for which the MIC is 6.26 µM (≈ 5.8 µg/mL) in assay [32]; 6.26 µM (≈ 5.8 µg/mL) in [33]; 3.13 µM (≈ 2.9 µg/mL) in [34]; 6.26 µM (≈ 5.8 µg/mL) in [35]; 6.26 µM (≈ 5.8 µg/mL) in assay [36]; 6.26 µM (≈ 5.8 µg/mL) in assay [7]. Besides, the MIC in assay [37] and in assay [38] was 6.26 µM (≈ 5.8 µg/mL) each time.

For the compound `NCCCC[C@H](NC(=O)[C@H](Cc1c[nH]c2ccccc12)NC(=O)[C@H](CCCCN)NC(=O)[C@H](CCCCN)NC(=O)[C@H](Cc1ccccc1)NC(=O)[C@H](Cc1ccccc1)NC(=O)[C@H](CCCCN)NC(=O)[C@H](CCCCN)NC(=O)[C@H](Cc1ccccc1)NC(=O)[C@H](Cc1ccccc1)NC(=O)[C@H](CCCCN)NC(=O)[C@H](Cc1ccccc1)NC(=O)[C@@H](N)Cc1c[nH]c2ccccc12)C(=O)O` [WFKFFKKFFKKWK], the MIC in [39], in assay [40] and in assay [41] was 4.22 µM (≈ 8 µg/mL) in each case.

As to `NC(N)=NCCC[C@H](NC(=O)[C@H](Cc1cnc[nH]1)NC(=O)[C@H](Cc1c[nH]c2ccccc12)NC(=O)[C@H](Cc1ccccc1)NC(=O)[C@H](CCCN=C(N)N)NC(=O)[C@H](CCCN=C(N)N)NC(=O)[C@H](Cc1c[nH]c2ccccc12)NC(=O)[C@H](Cc1cnc[nH]1)NC(=O)[C@H](CCCN=C(N)N)NC(=O)[C@@H](N)Cc1c[nH]c2ccccc12)C(=O)O` [WRHWRRFWHR], the MIC is 6.25 µM (≈ 10.1 µg/mL) in assay [42]; 6.25 µM (≈ 10.1 µg/mL) in assay [43]; 6.25 µM (≈ 10.1 µg/mL) in [44]; 3.13 µM (≈ 5.08 µg/mL) in assay [45]; 25 µM (≈ 40.6 µg/mL) in assay [46]; at least 50 µM in [47]. Besides, in assay [48], the MIC was 3.13 µM (≈ 5.08 µg/mL).
